Results taken from patent publication US20260234157A1, “COMPOUND AND METHOD FOR TARGETED DEGRADATION OF ANDROGEN RECEPTOR” (Gan & Lee Pharmaceuticals Co., Ltd., priority 2023, published 2026).
Positions count from the first letter of the chain named. Like-named read-outs stand apart in the source and are kept apart here.

How the values were obtained:
Type in all cases: cell-based
[1] = system: LNCaP FGC cells; assay: Inhibition of proliferation of LNCaP cells (WST-8)
Method: The cells were cultured in a cell culture incubator with 5% CO2 at 37° C. overnight. […] On the sixth day, 96 well plates were taken out, and 20 μL of WST-8 (Beytime, C0040) reagent was added to each well.

[2] = molecular target: T1, AR protein (Homo sapiens, UniProt P10275, T878A); assay: Degradation of AR protein in LNCaP cells (Western blot); details: for inhibition at 0.01 µM: read-out: Degradation rates of the AR protein in LNCaP cells, 10 nM (%); for inhibition at 0.1 µM: read-out: Degradation rates of the AR protein in LNCaP cells, 100 nM (%)
T1 construct: degradation activity of the compounds disclosed in the present disclosure on AR protein in LNCaP cells; host or cells: LNCaP FGC
T1 sequence (P10275 1-920 T878A): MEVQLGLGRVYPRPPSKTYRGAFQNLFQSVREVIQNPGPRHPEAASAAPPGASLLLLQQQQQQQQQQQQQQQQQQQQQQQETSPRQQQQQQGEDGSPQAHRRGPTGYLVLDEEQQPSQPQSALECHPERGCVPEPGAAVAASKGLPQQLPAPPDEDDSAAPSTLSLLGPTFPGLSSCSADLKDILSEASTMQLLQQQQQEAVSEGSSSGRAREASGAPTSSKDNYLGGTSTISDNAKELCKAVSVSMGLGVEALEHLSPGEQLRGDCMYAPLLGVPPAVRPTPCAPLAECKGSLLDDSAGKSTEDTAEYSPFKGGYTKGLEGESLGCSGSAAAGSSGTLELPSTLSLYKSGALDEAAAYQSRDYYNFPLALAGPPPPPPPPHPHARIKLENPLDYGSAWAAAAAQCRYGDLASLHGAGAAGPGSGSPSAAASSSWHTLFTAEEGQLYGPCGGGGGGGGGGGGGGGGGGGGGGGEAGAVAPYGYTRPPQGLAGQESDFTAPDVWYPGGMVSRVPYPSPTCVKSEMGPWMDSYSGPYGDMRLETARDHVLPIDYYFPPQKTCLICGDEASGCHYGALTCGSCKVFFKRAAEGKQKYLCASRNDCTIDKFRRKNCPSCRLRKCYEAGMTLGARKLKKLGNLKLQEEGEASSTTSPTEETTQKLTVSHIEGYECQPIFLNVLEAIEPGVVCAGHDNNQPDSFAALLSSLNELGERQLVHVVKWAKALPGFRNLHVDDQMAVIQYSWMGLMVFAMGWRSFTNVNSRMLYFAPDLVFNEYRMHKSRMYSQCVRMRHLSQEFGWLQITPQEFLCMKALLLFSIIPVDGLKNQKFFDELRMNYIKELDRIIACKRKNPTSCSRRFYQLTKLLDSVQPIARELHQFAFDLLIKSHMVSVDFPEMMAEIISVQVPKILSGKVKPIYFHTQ
Method: The degradation activity of the compounds disclosed in the present disclosure on AR protein in LNCaP cells (cell source: ATCC)
(§1) Corresponding solvent controls were also set and cultured for 8 hours. After 8 hours of cultivation, the culture medium was removed and the cells were washed with PBS. RIPA lysis buffer containing 1% Protease Inhibitor Cocktail was added, and the total protein extract was obtained by lysis and centrifugation. The protein concentration in the extract was detected by BCA method. Protein electrophoresis was performed using SDS-PAGE, followed by transfer of the protein onto a PVDF (Millipore Sigma catalog No. PSRP010R5) membrane at 100V constant voltage for 60 minutes. The PVDF membrane was then placed in a 1×TBST solution with 5% milk and blocked at room temperature for 1 hour. […] The primary antibody solution was discarded and the PVDF membrane was washed three times with 1×TBST for 5 minutes/time. […] The secondary antibody solution was discarded and the PVDF membrane was washed three times with 1×TBST for 5 minutes/time. Western blot imaging was performed by using a dual color infrared laser imaging system (Licor catalog No. Odyssey CLX). Bands were analyzed in grayscale using Image Studio software. For each sample, GAPDH protein bands were detected as internal reference. The degradation rates of the AR protein for the compounds and the positive control sample were calculated based on grayscale of the protein bands.

[3] = molecular target: T2, AR protein (Homo sapiens, UniProt P10275); assay: Degradation of AR protein in VCaP cells (Western blot); details: 8 hours; for inhibition at 0.01 µM: compound at 10 nM, read-out: Degradation rate of the AR protein in VCaP cells, 10 nM (%); for inhibition at 0.1 µM: compound at 100 nM, read-out: Degradation rate of the AR protein in VCaP cells, 100 nM (%)
T2 construct: degradation activity of the compounds disclosed in the present disclosure on AR protein in VCaP cells; host or cells: VCaP
T2 sequence (P10275 1-920): T1 sequence (P10275 1-920 T878A) with A878T
Method: The degradation activity of the compounds disclosed in the present disclosure on AR protein in VCaP cells (cell source: ATCC)
as §1

[4] = Homo sapiens, LNCaP, 96 h, read-out: IC50 for inhibiting the proliferation of LNCaP cells, LNCaP FGC cells, 96 hours, WST-8 absorbance at 450 nm
[5] = Homo sapiens, LNCaP, 96 h, LNCaP FGC cells, 96 hours, WST-8 absorbance at 450 nm, read-out: IC50 for inhibiting the proliferation of LNCaP cells
[6] = LNCaP cells, compound 10 nM, 8 hours, Western blot grayscale, GAPDH internal reference
[7] = LNCaP cells, compound 100 nM, 8 hours, Western blot grayscale, GAPDH internal reference

| Structure (SMILES) | inhibition at 0.01 µM [2, 6] | inhibition at 0.1 µM [2, 7] | inhibition at 0.01 µM [3] | inhibition at 0.1 µM [3] | other results |
| --- | --- | --- | --- | --- | --- |
| CC1(C)C(=O)N(c2ccc(C#N)c(C(F)(F)F)c2)C(=S)N1c1ccc(C(=O)N2CCC3(CC2)CC(N2CCC4(CC2)COc2cc5c(cc24)C(=O)N(C2CCC(=O)NC2=O)C5=O)C3)c(F)c1 (stereo not drawn) [Compound 122] |  |  |  |  | IC50 [1, 4]: 13.7 µM |
| CC1(CN2CCC3(CCc4cc5c(cc4O3)C(=O)N(C3CCC(=O)NC3=O)C5=O)CC2)CCN(C(=O)c2ccc(N3C(=S)N(c4ccc(C#N)c(C(F)(F)F)c4)C(=O)C3(C)C)cc2F)CC1 (stereo not drawn) [Compound 108] |  |  |  |  | IC50 [1, 4]: 10.4 µM |
| CC1(CN2CCC3(CCc4ccc5c(c4O3)CN(C3CCC(=O)NC3=O)C5=O)CC2)CCN(c2ccc(C(=O)N[C@H]3CC[C@H](Oc4ccc(C#N)c(Cl)c4)CC3)nn2)CC1 (stereo partly drawn) [Compound 151] |  |  |  |  | IC50 [1, 5]: 72.7 µM |
| COC1(CN2CC3(CCc4cc5c(cc4O3)C(=O)N(C3CCC(=O)NC3=O)C5)C2)CCN(c2ccc(C(=O)N[C@H]3CC[C@H](Oc4ccc(C#N)c(Cl)c4)CC3)nn2)CC1 (stereo partly drawn) [Compound 9] | 56% | 66% | 87% | 82% |  |
| N#Cc1ccc(O[C@H]2CC[C@H](NC(=O)c3ccc(N4CCC5(CC4)CC(N4CCC6(CC4)COc4cc7c(cc46)C(=O)N(C4CCC(=O)NC4=O)C7=O)C5)nn3)CC2)cc1Cl (stereo partly drawn) [Compound 47] | 54% | 67% | 82% | 79% |  |
| CC1(C)C(=O)N(c2ccc(C#N)c(C(F)(F)F)c2)C(=S)N1c1ccc(C(=O)N2CCC(CN3CCC4(CC3)COc3cc5c(cc3O4)CN(C3CCC(=O)NC3=O)C5=O)CC2)c(F)c1 (stereo not drawn) [Compound 111] |  |  |  |  | IC50 [1, 4]: 5.72 µM |
| N#Cc1ccc(O[C@H]2CC[C@H](NC(=O)c3ccc(N4CCC(F)(CN5CCC6(CCc7ccc8c(c7O6)CN(C6CCC(=O)NC6=O)C8=O)CC5)CC4)nn3)CC2)cc1Cl (stereo partly drawn) [Compound 132] |  |  |  |  | IC50 ([1]; LNCaP FGC cells, 96 hours, WST-8 absorbance at 450 nm, read-out: IC50 for inhibiting the proliferation of LNCaP cells): 4.35 µM |
| CC1(C)C(=O)N(c2ccc(C#N)c(C(F)(F)F)c2)C(=S)N1c1ccc(C(=O)N2CC[C@@H](CN3CCC4(CC3)COc3cc5c(cc3C4)C(=O)N(C3CCC(=O)NC3=O)C5=O)C2)c(F)c1 (stereo partly drawn) [Compound 126] |  |  |  |  | IC50 ([1]; read-out: IC50 for inhibiting the proliferation of LNCaP cells, LNCaP FGC cells, 96 hours, WST-8 absorbance at 450 nm): 4.06 µM |
| CC1(C)C(=O)N(c2ccc(C#N)c(C(F)(F)F)c2)C(=S)N1c1ccc(C(=O)N2CC(CN3CCC4(CC3)COc3cc5c(cc3C4)C(=O)N(C3CCC(=O)NC3=O)C5=O)C2)c(F)c1 (stereo not drawn) [Compound 128] |  |  |  |  | IC50 [1, 5]: 4.16 µM |
| CC1(C)C(=O)N(c2ccc(C#N)c(C(F)(F)F)c2)C(=S)N1c1ccc(C(=O)N2CC3(CC(N4CCC5(CC4)COc4cc6c(cc4C5)C(=O)N(C4CCC(=O)NC4=O)C6=O)C3)C2)c(F)c1 (stereo not drawn) [Compound 115] |  |  |  |  | IC50 [1, 4]: 10.8 µM |
| CC1(C)C(=O)N(c2ccc(C#N)c(C(F)(F)F)c2)C(=S)N1c1ccc(C(=O)N2CCC(CN3CC4(CCc5cc6c(cc5O4)C(=O)N(C4CCC(=O)NC4=O)C6=O)C3)CC2)c(F)c1 (stereo not drawn) [Compound 119] |  |  |  |  | IC50 [1, 4]: 4.11 µM |
| N#Cc1ccc(O[C@H]2CC[C@H](NC(=O)c3cnc(N4CCC(F)(CN5CCC6(CC5)COc5c6ccc6c5CN(C5CCC(=O)NC5=O)C6=O)CC4)cn3)CC2)cc1Cl (stereo partly drawn) [Compound 157] | 51% | 52% | 46% | 84% |  |
| N#Cc1ccc(O[C@H]2CC[C@H](NC(=O)c3ccc(N4CCC(CN5CCC6(CC5)Cc5cc7c(cc5O6)C(=O)N(C5CCC(=O)NC5=O)C7=O)CC4)nn3)CC2)cc1Cl (stereo partly drawn) [Compound 78] | 67% | 70% | 72% | 57% |  |
| N#Cc1ccc(O[C@H]2CC[C@H](NC(=O)c3ccc(N4CC5(CCC(N6CCC7(CC6)COc6c7ccc7c6CN(C6CCC(=O)NC6=O)C7=O)CC5)C4)nn3)CC2)cc1Cl (stereo partly drawn) [Compound 168] | 70% | 26% | 76% | 77% |  |
| N#Cc1ccc(O[C@H]2CC[C@H](NC(=O)c3ccc(N4CCC(CN5CC6(CCc7cc8c(cc7O6)C(=O)N(C6CCC(=O)NC6=O)C8=O)C5)CC4)nn3)CC2)cc1Cl (stereo partly drawn) [Compound 1] | 44% | 82% | 65% | 79% |  |
| N#Cc1ccc(O[C@H]2CC[C@H](NC(=O)c3ccc(N4CC(N5CCC6(CC5)COc5c6ccc6c5CN(C5CCC(=O)NC5=O)C6=O)C4)nn3)CC2)cc1Cl (stereo partly drawn) [Compound 183] |  |  | 75% | 84% | inhibition at 0.01 µM ([2]; LNCaP, 8 h): 40%; inhibition at 0.1 µM ([2]; LNCaP, 8 h): 51% |
| N#Cc1ccc(O[C@H]2CC[C@H](NC(=O)c3ccc(N4CCC(CN5CCC6(CC5)COc5cc7c(cc5O6)CN(C5CCC(=O)NC5=O)C7=O)CC4)nn3)CC2)cc1Cl (stereo partly drawn) [Compound 76] | 74% | 74% | 84% | 76% |  |
| N#Cc1ccc(O[C@H]2CC[C@H](NC(=O)c3cnc(N4CCC5(CC4)COc4c5ccc5c4CN(C4CCC(=O)NC4=O)C5=O)nc3)CC2)cc1Cl (stereo partly drawn) [Compound 201] | 6% | 32% | -11% | 32% |  |
